US6579882B2, “Cell adhesion-inhibiting antiinflammatory compounds” (Abbott Laboratories, priority 1998, dated 2003)

How the values were obtained:
E-Selectin = assay: CAM ELISA: E-selectin expression on TNF-stimulated HUVECs; format: cell-based; details: 1 μM compound, primary human umbilical vein endothelial cells, compound 24 hours, then TNF 5 ng/mL 6 hours; for inhibition at 1 µM: Homo sapiens, Endothelial cell
Description: (§1) Pooled primary human umbilical vein endothelial cells (HtVEC's) (Clonetics) between passages 3 and 7 were plated in 96-well plates (Costar), 100 μL/well, 5×10^4 cells/mL in Clonetics EBM/2% FBS/EGF/Bovine brain extract/gentamicin in the absence of hydrocortisone. The following day, compounds of the invention were added in 10 μL/well medium, and the plates were incubated at 37° C. 24 hours after compound addition, TNF (Gibco/BRL) in 10 μL/well medium was added to a final concentration of 5 ng/mL, and the cells were incubated an additional 6 hours at 37° C. Then media was removed, and the plates were washed once with D-PBS (Gibco/BRL) and treated with primary antibodies (Becton Dickinson, City), 100 μL/well in D-PBS/2% BSA (Sigma)/0.01% azide. Primary antibodies at an initial concentration of 1 mg/mL were used at the following dilutions: anti-ELAM-1, 1:2000, anti-ICAM-1, 1:2000 and anti-VACM-1, 1:3000. Plates were stored overnight at 4° C., washed 3 times with D-PBS, and treated with secondary antibody (Jackson Labs), 100 μL/well 1:8000 dilution HRP-conjugated donkey anti-mouse IgG(H+L) in D-PBS/2%BSA. Plates were incubated a minimum of 1 hour at room temperature, washed 3 times with D-PBS and treated with 100 μL of orhto-phenylene diamine-2 HCl reagent per well. Plates were developed approximately 15 minutes and neutralized with 100 μL/well 1N sulfuric acid. Absorbance was read at 490 nm.

ICAM-1 = assay: CAM ELISA: ICAM-1 expression on TNF-stimulated HUVECs; format: cell-based; details: 1 μM compound, primary human umbilical vein endothelial cells, compound 24 hours, then TNF 5 ng/mL 6 hours; for inhibition at 1 µM: Homo sapiens, Endothelial cell
Description: as §1

VCAM-1 = assay: CAM ELISA: VCAM-1 expression on TNF-stimulated HUVECs; format: cell-based; details: 1 μM compound, primary human umbilical vein endothelial cells, compound 24 hours, then TNF 5 ng/mL 6 hours; for inhibition at 1 µM: Homo sapiens, Endothelial cell
Description: as §1

SMILES | inhibition at 1 µM (E-Selectin) | inhibition at 1 µM (ICAM-1) | inhibition at 1 µM (VCAM-1) | melting point | CAM ELISA % Inhibition at 1 μM E-Selectin (E-Selectin) | CAM ELISA % Inhibition at 1 μM ICAM-1 (ICAM-1) | CAM ELISA % Inhibition at 1 μM VCAM-1 (VCAM-1)
Cc1nc(-c2cc3c(Oc4ccc(Cl)cc4)cncc3s2)no1 [Example 279, 4-(4-Chlorophenoxy)-2-(5-methyl-1,2,4-oxadiazol-3-yl)thieno[2,3-c]pyridine] | 30% | 40% | 24% | 120 to 121 °C |  |  | 
CNc1nnc(-c2cc3c(Oc4ccc(Cl)cc4)cncc3s2)s1 [Example 286, 5-[4-(4-Chlorophenoxy)thieno[2,3-c]pyridin-2-yl]-N-methyl-1,3,4-thiadiazol-2-amine] | 54% | 64% | 46% | 226 to 229 °C |  |  | 
FC(F)(F)c1nc(-c2cc3c(Oc4ccc(Cl)cc4)cncc3s2)no1 [Example 284, 4-(4-Chlorophenoxy)-2-[5-(trifluoromethyl)-1,2,4-oxadiazol-3-yl]thieno[2,3-c]pyridine] | 56% | 68% | 45% | 52 to 54 °C |  |  | 
NNC(=O)c1cc2c(Oc3ccc(C(F)(F)F)cc3)cncc2s1 [Example 158, 4-[4-(Trifluoromethyl)phenoxy]thieno[2,3-c]pyridine-2-carbohydrazide] | 61% | 65% | 26% | 146 to 147 °C |  |  | 
Nc1noc(-c2cc3c(Oc4ccc(Cl)cc4)cncc3s2)n1 [Example 285, 5-[4-(4-Chlorophenoxy)thieno[2,3-c]pyridin-2-yl]-1,2,4-oxadiazol-3-amine] | 56% | 65% | 50% | 217 to 219 °C |  |  | 
Nc1csc(-c2cc3c(Oc4ccc(Cl)cc4)cncc3s2)n1 [Example 295, 2-[4-(4-Chlorophenoxy)thieno[2,3-c]pyridin-2-yl]-1,3-thiazol-4-amine] | 59% | 56% | 44% | 168 to 170 °C (dec.) |  |  | 
NC(=O)c1cc2c(Sc3ccccn3)cncc2s1 [Example 20, 4-(2-pyridinylthio)thieno[2,3-c]pyridine-2-carboxamide] | 55% | 46% | 26% | 239 to 242 °C |  |  | 
Cc1ccc(Sc2ncnc3c(C)c(C(N)=O)sc23)cc1 [Example 16, 7-methyl-4-[(4-methylphenyl)thio]thieno[3,2-d]pyrimidine-6-carboxamide] | 35% | 32% | 19% | 243 to 246 °C |  |  | 
NC(=NO)c1cc2c(Oc3ccc(Cl)cc3)cncc2s1 [Example 249, 4-(4-Chlorophenoxy)-N′-hydroxythieno[2,3-c]pyridine-2-carboximidamide] | 75% | 69% | 61% | 194 to 196 °C |  |  | 
O=C(NCCO)c1cc2c(Oc3ccc(Cl)cc3)cnc(Cl)c2s1 [Example 313, 7-Chloro-4-(4-chlorophenoxy)-N-(2-hydroxyethyl)thieno[2,3-c]pyridine-2-carboxamide] | 57% | 68% | 39% | 129 to 132 °C |  |  | 
OCc1cc2c(Oc3ccc(Cl)cc3)cncc2s1 [Example 90, 4-(4-chlorophenoxy)thieno[2,3-c]pyridine-2-methanol] | 47% | 51% | 27% | 90 to 91 °C |  |  | 
Cn1c(N)nnc1-c1cc2c(Oc3ccc(Cl)cc3)cncc2s1 [Example 283, 5-[4-(4-Chlorophenoxy)thieno[2,3-c]pyridin-2-yl]-4-methyl-4H-1,2,4-triazol-3-amine] | 39% | 57% | 52% | 233 to 235 °C |  |  | 
Cc1c(C(N)=O)sc2cncc(Oc3ccc(Cl)cc3)c12 [Example 125, 4-(4-Chlorolphenoxy)-3-methylthienol[2,3-c]pyridine-2-carboxamide] |  |  |  |  | 72% | 69% | 44%
Nc1nc(-c2cc3c(Oc4ccc(Cl)cc4)cncc3s2)no1 [Example 289, 3-[4-(4-Chlorophenoxy)thieno[2,3-c]pyridin-2-yl]-1,2,4-oxadiazol-5-amine] | 64% | 62% | 52% |  |  |  | 
NC(=O)/C=C/c1cc2c(Oc3ccc(Br)cc3)cncc2s1 [Example 259, (E)-3-[4-(4-Bromophenoxy)thieno[2,3-c]pyridin-2-yl]propenamide] | 63% | 59% | 57% | 195 to 196 °C |  |  | 
CCOCCOCCOCC1(c2ccc(Oc3cncc4sc(C(=O)NC)cc34)cc2)CC1 [Example 226] |  |  |  |  | 77% | 74% | 56%
N#Cc1ccc(Oc2cncc3sc(C(N)=O)cc23)cc1 [Example 187, 4-(4-Cyanophenoxy)thieno[2,3-c]pyridine-2-carboxamide] | 78% | 72% | 54% |  |  |  | 
NC(=O)c1cc2c(SCc3ccc(Cl)cc3)cncc2s1 [Example 54, 4-[[(4-chlorophenyl)methyl]thio]thieno[2,3-c]pyridine-2-carboxamide] | 74% | 59% | 33% | 198 to 199 °C |  |  | 
NC(=O)c1cc2c(Oc3ccc(Br)cc3)cnc(Cl)c2s1 [Example 316, 4-(4-Bromophenoxy)-7-chlorothieno[2,3-c]pyridine-2-carboxamide] | 76% | 68% | 42% |  |  |  | 
Nc1ccc(-c2cc3c(Oc4ccc(Cl)cc4)cncc3s2)cn1 [Example 274, 5-[4-(4-Chlorophenoxy)thieno[2,3-c]pyridin-2-yl]-2-pyridinamine] | 65% | 71% | 44% | 208 to 210 °C |  |  | 
O=C(Nc1cc2c(Oc3ccc(Cl)cc3)cncc2s1)OC1CCOC1 (stereo not drawn) [Example 89, N-(4-(4-chlorophenoxy)thieno[2,3-c]pyridin-2-yl)-O-(3-tetrahydrofuranyl)carbamate] |  |  |  |  | 62% | 64% | 50%
Cc1ccc(Oc2cncc3sc(C(N)=O)cc23)cc1 [Example 60, 4-(4-methylphenoxy)thieno[2,3-c]pyridine-2-carboxamide] | 74% | 71% | 42% |  |  |  | 
CNC(=O)c1cc2c(Oc3ccc(-c4cncn4C)cc3)cncc2s1 [Example 224, N-Methyl-4-[4-(1-methyl-1H-imidazol-5-yl)phenoxy]thieno[2,3-c]pyridine-2-carboxamide] | 61% | 55% | 41% |  |  |  | 
Nc1nnc(-c2cc3c(Oc4ccc(Br)cc4)cncc3s2)o1 [Example 276, 5-[4-(4-Bromophenoxy)thieno[2,3-c]pyridin-2-yl]-1,3,4-oxadiazol-2-ylamine] | 66% | 61% | 52% |  |  |  | 
NC(=O)c1sc2cncc(Cl)c2c1N [Example 301, 3-Amino-4-chlorothieno[2,3-c]pyridine-2-carboxamide] | 44% | 48% | 34% |  |  |  | 
NC(=O)c1cc2c(Oc3ccc(Cl)cc3)c(Cl)ncc2s1 [Example 340, 5-Chloro-4-(4-chlorophenoxy)thieno[2,3-c]pyridine-2-carboxamide] | 18% | 33% | 20% |  |  |  | 
Nc1nnc(-c2cc3c(Oc4ccc(Cl)cc4)cncc3s2)o1 [Example 275, 5-[4-(4-Chlorophenoxy)thieno[2,3-c]pyridin-2-yl]-1,3,4-oxadiazol-2-amine] | 73% | 72% | 64% |  |  |  | 
NC(=O)c1cc2c(Oc3ccc(Cl)cc3)cnc(Cl)c2s1 [Example 311, 7-Chloro-4-(4-chlorophenoxy)thieno[2,3-c]pyridine-2-carboxamide] | 72% | 77% | 36% |  |  |  | 
OCC(O)c1cc2c(Oc3ccc(Cl)cc3)cncc2s1 (stereo not drawn) [Example 254, 1-[4-(4-Chlorophenoxy)thieno[2,3-c]pyridin-2-yl]-1,2-ethanediol] | 24% | 28% | 24% |  |  |  | 
CN(C)C(=O)c1cc2c(Oc3ccc(Cl)cc3)cncc2s1 [Example 104, 4-(4-chlorophenoxy)-N,N-dimethylthieno[2,3-c]pyridine-2-carboxamide] | 78% | 72% | 53% |  |  |  | 
